The values that follow come from patent US20240272142A1, “METHOD FOR DETERMINING WHITENING EFFICACY OF COSMETIC RAW MATERIAL AND USE THEREOF” (SHENZHEN INSTITUTE FOR DRUG CONTROL (SHENZHEN TESTING …, priority 2023, published 2024).

Values joined by “and” are separate entries in the source; they are usually repeats but may differ in a detail not shown here. Equal values may be shown once.

The subject of this assay is mouse melanoma cells B16-F10. The assay can be described thus: Relative melanin content of B16-F10 cells after 24 h stimulation with α-MSH (Example 1). The conditions noted are these: absorbance at 405 nm relative to blank group, three replicate values. The format is cell-based. How it is done: The results in the examples of the present disclosure are all expressed in terms of a relative melanin content: the relative melanin content=absorbance of the experimental group/absorbance of the blank group×100%.
• (1) A cell suspension of B16-F10 cells in a logarithmic growth phase was inoculated into 6-well plates in a cell density of 2×10^5 cells/mL, with an amount being 2 mL in each well, and then added into a 5% carbon dioxide incubator and cultured at a temperature of 37° C. for 24 h. • (2) A medium contained in the 6-well plates was removed, the B16-F10 cells were washed with 2 mL of the PBS, 2 mL of substances from each of the following groups each were added into each well of the 6-well plates, and then cultured in the 5% carbon dioxide incubator at a temperature of 37° C. for 24 h.
Blank group: 2 mL of a basal DMEM was added into each well.
Model group: 2 mL of a-MSH solutions with different concentrations (0.5 μM, 1 μM, 2.5 μM, 5 μM, and 10 μM) were separately added into each well. • (3) Determination of a relative melanin content: the basal DMEM in the 6-well plates was removed by using a sterile pipette, the B16-F10 cells were washed with 2 mL of the PBS, and digested with 400 μL of trypsin; then the digesting was terminated with 1 mL of a complete DMEM; the B16-F10 cells were collected into centrifuge tubes, and centrifuged at 2,500 rpm for 10 min; a resulting supernatant after centrifugation was discarded, the resulting B16-F10 cells were centrifuged with 1,000 μL of the PBS for a second time, 500 μL of a 1 mol/L NaOH solution (containing 10% of DMSO) was added into each of the centrifuge tubes, and subjected to water bath at a temperature of 80° C. for 1 h to obtain a product; 200 μL of the product was transferred into a 96-well plate, an absorbance at 405 nm was determined and calculated to obtain the relative melanin content.

For “α-melanocyte-stimulating hormone [α-MSH]”, the Relative melanin content is 102.51% and 111.76% and 97.21% (α-MSH 0.5 μM); 104.65% and 100.54% and 103.16% (α-MSH 1.0 μM); 98.75% and 98.22% and 102.18% (α-MSH 2.5 μM); 96.79% and 97.45% and 95.71% (α-MSH 5.0 μM); 111.71% and 108.05% and 112.79% (α-MSH 10 μM).
